Measured values from article PMC4919791, “Effect of curcumin analogs onα-synuclein aggregation and cytotoxicity” (Scientific Reports, 2016).
“Also recorded” adds a separate entry of the source.

What was measured:
[1] = molecular target: T1, preformed α-Syn amyloid fibrils (Homo sapiens, UniProt P37840); test: MTT assay of preformed α-Syn fibrils incubated with curcumin analogs; format: cell-based; settings: fibrils incubated with analog 48 h at 37 °C; SH-SY5Y cells
T1 construct: made in house; host or cells: Escherichia coli BL21
Experimental: (§1) The concentration of the fibrils was determined by subtraction of supernatant concentration from the original concentration of α-Syn kept for fibrillation.

preformed α-Syn fibrils [2] = molecular target: T2, preformed α-Syn fibrils (Homo sapiens, UniProt P37840); test: LDH cytotoxicity assay of preformed α-Syn fibrils incubated with curcumin analogs; format: cell-based; settings: fibrils incubated with analog 48 h; SH-SY5Y cells
T2 construct: made in house; host or cells: Escherichia coli BL21
Experimental: as §1
(§2) The percent LDH release was plotted as difference in the absorbance value of 490 nm and 690 nm, considering 100% release for the TritonX-100 treated cells.

α-Syn fibrils [3] = molecular target: T3, α-Syn fibrils (Homo sapiens, UniProt P37840); test: LDH cytotoxicity assay of α-Syn fibrils formed in presence of curcumin analogs; format: cell-based; settings: SH-SY5Y cells
T3 construct: made in house; host or cells: Escherichia coli BL21
Description: as §2

[4] = Stability of curcumin analogs by time-dependent intrinsic fluorescence; format: physicochemical; settings: 20 mM MES buffer pH 6.0, 0.01% NaN3, 37 °C
Experimental: 1μl of this DMSO-stock solution was transferred to 2 ml microfuge tube and 1 ml of 20 mM MES buffer (pH 6.0, 0.01% NaN3) was added to it and mixed immediately by vortexing. These solutions were incubated at 37 °C and their respective fluorescence was taken at certain time intervals. The fluorescence was monitored by placing the 200 μl of the incubated solution in 0.1 cm path-length quartz cuvette (Hellma, Forest Hills, NY) and the spectra were acquired by using FluoroMax-4 spectrofluorometer (HORIBA JobinYvon) instrument with excitation and emission slit widths of 5 nm and 10 nm respectively. The fluorescence intensity maxima for each sample were plotted against time of incubation and fitted in exponential decay 1 in the Origin 8.0 software according to manufacture’s protocol (Fig. 2A).

preformed α-Syn fibrils [5] = molecular target: T2, preformed α-Syn fibrils; test: CD spectroscopy of preformed α-Syn fibrils with analogs; format: biochemical; settings: 0 h and 48 h of incubation
Experimental: Further, the effect of curcumin analogs on the secondary structure of protein in preformed amyloid fibrils was studied by circular dichroism (CD) spectroscopy at 0 h and after 48 h of incubation. […] To further validate this, Fourier transform infrared spectroscopy (FTIR) was also performed with these samples, where spectra were recorded from 1500 to 1800 cm^−1.The region characteristic of protein secondary structures (1600–1700 cm^−1) was deconvoluted and the peaks were assigned according to published reports. FTIR spectra in the 1600–1700 cm^−1 region of preformed α-Syn fibrils in absence and presence of curcumin and its analogs are presented in Figs 4B and S4 and their percentage of secondary structures are shown in Table-S1.
20 μl of protein solution from 80 μM stock was diluted to 200 μl in 20 mM MES buffer, pH 6.0 with 0.01% NaN3 such that final protein concentration becomes 8 μM. The protein solution was then placed into a quartz cell (Hellma, Forest Hills, NY) of 0.1 cm path-length. Spectra were recorded using JASCO-810 instrument at 25 °C. Spectra acquisition was over the wavelength range of 198–260 nm with the scan speed of 100 nm/min, bandwidth 1 nm, data pitch 1 nm and response time of 1 sec. Processing of raw data was done by subtraction of buffer spectra and subsequently smoothing according to the manufacturer’s instructions.

α-Syn oligomers = molecular target: T4, α-Syn oligomers (Homo sapiens, UniProt P37840); test: LDH cytotoxicity assay of α-Syn oligomers with C1/C6; format: cell-based; settings: oligomers incubated 30 minutes with compound; SH-SY5Y cells
T4 construct: made in house; host or cells: Escherichia coli BL21
Description: It has been shown that α-Syn mutants that form oligomers preferentially are more toxic and kill dopaminergic neurons in animal models as compared to fibril forming mutants. Therefore, compounds that effectively reduce the toxicity of oligomers could be beneficial for the treatment of PD. In the present study, we tested the effect of curcumin and its analogs on the toxicity, hydrophobic exposure and morphology of α-Syn oligomers isolated using size exclusion chromatography (SEC). The toxicity of α-Syn oligomers in presence and absence of curcumin/analogs were initially tested using MTT assay. […] To further validate the effectiveness of C6 to reduce the cytotoxicity of α-Syn oligomers, we also performed LDH cytotoxicity assay and Calcein-AM/Ethidium homodimer-1 staining. […] As previously it has been proposed that curcumin reduces the oligomers toxicity by altering their exposed hydrophobic surface, we also measured the hydrophobic surface exposure of preformed α-Syn oligomers incubated with curcumin and its analogs.
10 μM of α-Syn oligomers/fibrils incubated with and without 5 μM curcumin/analogs were added to SH-SY5Y cells (10,000 cells/well) in 96 well plate. […] The percent LDH release was plotted as difference in the absorbance value of 490 nm and 690 nm, considering 100% release for the TritonX-100 treated cells.

preformed α-Syn fibrils [6] = molecular target: T2, preformed α-Syn fibrils; test: Nile red binding assay on preformed α-Syn fibrils; format: biochemical; settings: fibrils incubated with analog 48 h
Experimental: Stock solution of NR was prepared in DMSO (1 mM). […] Similar experimental protocol was used for NR binding to oligomers. FluoroMax-4 spectrofluorometer (HORIBA JobinYvon) was used with excitation and emission slit widths of 5 nm. The maximum NR fluorescence obtained at ~630 nm was used for plotting bar diagrams.

α-Syn fibrils [7] = molecular target: T3, α-Syn fibrils; test: MTT assay of α-Syn fibrils formed in presence of curcumin analogs; format: cell-based; settings: 10 μM α-Syn fibril, 36 h, SH-SY5Y
Experimental: Next, we measured the effect of α-Syn fibrils formed in presence and absence of curcumin analogs on the viability of SH-SY5Y neuronal cell line by MTT reduction assay. SH-SY5Y cells were incubated with 10 μM α-Syn fibril formed in presence of various curcumin analogs for 36 h. […] However, the extent of decrease in toxicity was different for different analogs. […] The calcein-AM/ethidium homodimer-1 staining also further corroborated the results obtained from MTT and LDH assay (Fig. 8C).

relative stability compared with curcumin (slope of normalized fluorescence versus time) [4]: relatively more stable than curcumin
secondary structure of preformed α-Syn fibrils by CD (preformed α-Syn fibrils [5]): remains unaltered
Compound: COc1cc(/C=C/C(=O)CC(=O)/C=C/c2ccc(OCc3ccccc3)c(OC)c2)ccc1OCc1ccccc1 [C6]
cell viability, MTT, preformed α-Syn fibrils incubated with analog [1]: 92.9%
effect on toxicity of preformed α-Syn fibrils, MTT [1]: reduction in toxicity
effect on cell death by preformed α-Syn fibrils, LDH (preformed α-Syn fibrils [2]): decrease in cell death
toxicity of α-Syn fibrils formed in presence of analog, LDH (α-Syn fibrils [3]): less toxicity to cells
LDH release with α-Syn oligomers (α-Syn oligomers): reduced LDH release
Nile red fluorescence of preformed α-Syn fibrils (exposed hydrophobic surface) (preformed α-Syn fibrils [6]): less NR fluorescence for fibrils as compared to curcumin
toxicity of α-Syn fibrils formed in presence of analog, MTT (α-Syn fibrils [7]): maximum cell viability; also recorded: less toxicity to cells
